Read-outs that look alike come from different tables or passages of the source.
Tests used:
[1] = molecular target: T1, menin/MLL (terbium chelate-labeled menin, FITC-MBM1 peptide) (Homo sapiens, UniProt O00255, T541A); assay: Menin/MLL homogenous time-resolved fluorescence (HTRF) assay; format: binding; details: 30 min incubation
T1 construct: Menin (a.a 1-610-6xhis tag)
T1 sequence (O00255 with tags, fused parts or gaps T541A): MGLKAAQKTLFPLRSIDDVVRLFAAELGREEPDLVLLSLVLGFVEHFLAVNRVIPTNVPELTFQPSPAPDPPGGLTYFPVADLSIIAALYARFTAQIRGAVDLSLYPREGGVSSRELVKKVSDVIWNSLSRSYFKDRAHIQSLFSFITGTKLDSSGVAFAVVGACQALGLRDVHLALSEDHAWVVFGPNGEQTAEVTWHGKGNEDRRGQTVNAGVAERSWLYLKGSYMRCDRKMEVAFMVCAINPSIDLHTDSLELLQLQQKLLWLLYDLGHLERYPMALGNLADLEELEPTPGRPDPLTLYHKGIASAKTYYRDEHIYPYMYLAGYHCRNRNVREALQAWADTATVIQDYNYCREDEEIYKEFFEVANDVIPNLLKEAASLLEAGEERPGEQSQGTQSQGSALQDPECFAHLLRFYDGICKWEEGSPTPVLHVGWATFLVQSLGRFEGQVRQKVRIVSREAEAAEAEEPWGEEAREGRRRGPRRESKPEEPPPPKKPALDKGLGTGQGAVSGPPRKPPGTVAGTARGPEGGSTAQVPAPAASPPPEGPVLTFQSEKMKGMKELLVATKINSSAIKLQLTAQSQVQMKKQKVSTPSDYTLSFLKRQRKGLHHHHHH
Description: 1) Menin/MLL Homogenous Time-Resolved Fluorescence (HTRF) Assay
To an untreated, white 384-well microtiter plate was added 40 nL 200× test compound in DMSO and 4 μL 2× terbium chelate-labeled menin (vide infra for preparation) in assay buffer (40 mM Tris.HCl, pH 7.5, 50 mM NaCl, 1 mM DTT (dithiothreitol) and 0.05% Pluronic F-127). After incubation of test compound and terbium chelate-labeled menin for 30 min at ambient temperature, 4 μL 2× FITC-MBM1 peptide (FITC-β-alanine-SARWRFPARPGT-NH2 (SEQ ID NO: 3)) (“FITC” means fluorescein isothiocyanate) in assay buffer was added, the microtiter plate centrifuged at 1000 rpm for 1 min and the assay mixtures incubated for 15 min at ambient temperature. The relative amount of menin FITC-MBM1 complex present in an assay mixture is determined by measuring the homogenous time-resolved fluorescence (HTRF) of the terbium/FITC donor/acceptor fluorophore pair using an EnVision microplate reader (ex. 337 nm/terbium em. 490 nm/FITC em. 520 nm) at ambient temperature. The degree of fluorescence resonance energy transfer (the HTRF value) is expressed as the ratio of the fluorescence emission intensities of the FITC and terbium fluorophores (F^em 520 nm/F^em 490 nm). The final concentrations of reagents in the binding assay are 200 pM terbium chelate-labeled menin, 75 nM FITC-MBM1 peptide and 0.5% DMSO in assay buffer. Dose-response titrations of test compounds are conducted using an 11 point, four-fold serial dilution scheme, starting typically at 10 μM.
Compound potencies were determined by first calculating % inhibition at each compound concentration according to equation 1:
% inhibition=((HC−LC)−(HTRF^compound−LC))/(HC−LC))*100 (Eqn 1)
Where LC and HC are the HTRF values of the assay in the presence or absence of a saturating concentration of a compound that competes with FITC-MBM1 for binding to menin, and HTRF^compound is the measured HTRF value in the presence of the test compound. HC and LC HTRF values represent an average of at least 10 replicates per plate.
% inhibition=Bottom+(Top−Bottom)/(1+10^((logIC50−log[cmpd])*h)) (Eqn 2)
Where Bottom and Top are the lower and upper asymptotes of the dose-response curve, respectively, IC50 is the concentration of compound that yields 50% inhibition of signal and h is the Hill coefficient. IC50 values below 0.1 nM in the HTRF assay were reported as 0.1 nM in the Table below (detection limit).
Preparation of Terbium cryptate labeling of Menin: Menin (a.a 1-610-6xhis tag (“6xhis tag” disclosed as SEQ ID NO: 2), 2.3 mg/mL in 20 mM Hepes (2-[4-(2-Hydroxyethyl)-1-piperazinyl]ethane sulfonic acid), 80 mM NaCl, 5 mM DTT (Dithiothreitol), pH 7.5) was labeled with terbium cryptate as follows. 200 μg of Menin was buffer exchanged into 1× Hepes buffer. 6.67 μM Menin was incubated with 8-fold molar excess NHS (N-hydroxysuccinimide)-terbium cryptate for 40 minutes at room temperature. Half of the labeled protein was purified away from free label by running the reaction over a NAP5 column with elution buffer (0.1 M Hepes, pH 7+0.1% BSA (bovine serum albumin)). The other half was eluted with 0.1 M phosphate buffered saline (PBS), pH7. 400 μl of eluent was collected for each, aliquoted and frozen at −80° C. The final concentration of terbium-labeled Menin protein was 115 μg/mL in Hepes buffer and 85 μg/mL in PBS buffer, respectively.

MOLM14 cells = assay: Proliferation assay, spheroid-like growth, MOLM14 (MLL-AF9 rearranged); format: cell-based, human; details: 8 days, confluence as measure of spheroid size, read-out: spheroid assay_OneTime MOLM14 IC50
Description: The anti-proliferative effect of menin/MLL protein/protein interaction inhibitor test compounds was assessed in human leukemia cell lines. The cell line MOLM14 harbors a MLL translocation and expresses the MLL fusion proteins MLL-AF9, respectively, as well as the wildtype protein from the second allele. […] KO-52 was used as a control cell line containing two MLL (KMT2A) wildtype alleles in order to exclude compounds that display general cytotoxic effects.
MOLM14 cells were cultured in RPMI-1640 (Sigma Aldrich) supplemented with 10% heat-inactivated fetal bovine serum (HyClone), 2 mM L-glutamine (Sigma Aldrich) and 50 μg/ml gentamycin (Gibco). KO-52 cell lines were propagated in alpha-MEM (Sigma Aldrich) supplemented with 20% heat-inactivated fetal bovine serum (HyClone), 2 mM L-glutamine (Sigma Aldrich) and 50 μg/ml gentamycin (Gibco).
In order to assess the anti-proliferative effects, 200 MOLM14 cells, or 300 KO-52 cells were seeded in 200 μl media per well in 96-well round bottom, ultra-low attachment plates (Costar, catalogue number 7007). Cell seeding numbers were chosen based on growth curves to ensure linear growth throughout the experiment. Test compounds were added at different concentrations and the DMSO content was normalized to 0.3%. Cells were incubated for 8 days at 37° C. and 5% CO2. Spheroid like growth was measured in real-time by live-cell imaging (IncuCyteZOOM, Essenbio, 4× objective) acquiring images at day 8. Confluence (%) as a measure of spheroid size was determined using an integrated analysis tool.
In order to determine the effect of the test compounds over time, the confluence in each well as a measure of spheroid size, was calculated. Confluence of the highest dose of a reference compound was used as baseline for the LC (Low control) and the confluence of DMSO treated cells was used as 0% cytotoxicity (High Control, HC).
Absolute IC50 values were calculated as percent change in confluence as follows:
LC=Low Control: cells treated with e.g. 1 μM of the cytotoxic agent staurosporin, or e.g. cells treated with a high concentration of an alternative reference compound
GraphPad Prism (version 7.00) was used to calculate the IC50. Dose-response equation was used for the plot of % Effect vs Log 10 compound concentration with a variable slope and fixing the maximum to 100% and the minimum to 0%.

Row | IC50 [1] [nM] | IC50 (MOLM14 cells; Homo sapiens, MOLM-14, 192 h) [nM] | IC50 (MOLM14 cells) [nM] | Compound
1 | 0.08 | 26 | – | CC(C)[C@H]([C@H]1C[C@@H](Nc2ncnc3[nH]ncc23)C1)N1CC2(CCN(c3ncnnc3Oc3ccc(F)cc3-c3cncnc3C3CC3)C2)C1 (single isomer, unassigned) [Compound 413]
2 | 0.52 | 260 | – | Cc1cc(C2CC2)c(-c2cc(F)ccc2Oc2nncnc2N2CCC3(C2)CN([C@@H](C(C)C)[C@H]2C[C@H](N4C[C@@H]5[C@H](C4)[C@H]5C(=O)N(C)C)C2)C3)nn1 [Compound 401]
3 | 0.31 | 83 | – | CC(C)[C@@H]([C@H]1C[C@H](N2CCC3(CCO3)CC2)C1)N1CC2(CCN(c3ncnnc3Oc3ccc(F)cc3-c3cnncc3C3CC3)C2)C1 (single isomer, unassigned) [Compound 281b]
4 | 0.17 | 3.3 | – | CC(=O)Nc1nccc(N[C@H]2C[C@@H]([C@@H](C(C)C)N3CC4(CCN(c5ncnnc5Oc5ccc(F)cc5-c5cncnc5C5CC5)C4)C3)C2)c1F (single isomer, unassigned) [Compound 429]
5 | 0.059 | < 1.8 | – | Cc1ncc(-c2cc(F)ccc2Oc2nncnc2N2CCC3(C2)CN([C@@H](C(C)C)[C@H]2C[C@@H](N4CC[C@@H](NC(=O)C5CC5)C4)C2)C3)c(C2CC2)n1 [Compound 386]
6 | 0.055 | – | 4 | CC(=O)N1CC2CN([C@H]3C[C@@H]([C@H](C(C)C)N4CC5(CCN(c6ncnnc6Oc6ccc(F)cc6-c6cnc(C)nc6C6CC6)C5)C4)C3)CC2C1 (stereo partly shown) [Compound 375]
7 | 0.4 | 160 | – | CC(=O)N[C@H]1C[C@@H](C(C(C)C)N2CC3(CCN(c4ncnnc4Oc4ccc(F)cc4-c4nnccc4C4CC4)C3)C2)C1 (stereo partly shown) [Compound 183]
8 | 0.2 | 8 | – | CC(C)[C@H]([C@H]1C[C@@H](N2CCC3(CCO3)C2)C1)N1CC2(CCN(c3ncnnc3Oc3ccc(F)cc3-c3cncnc3C3CC3)C2)C1 (single isomer, unassigned) [Compound 212]
9 | 5 | > 940 | – | CC(C)[C@H]([C@H]1C[C@@H](N2CCC3(CCO3)CC2)C1)N1CC2(CCN(c3ncnnc3Oc3ccc(F)cc3-c3cnncc3C3CC3)C2)C1 (single isomer, unassigned) [Compound 280a]
10 | 0.2 | 7 | – | CC(C)C([C@H]1C[C@@H](N2CC[C@@](C)(O)C2)C1)N1CC2(CCN(c3ncnnc3Oc3ccc(F)cc3-c3cnccc3C3CC3)C2)C1 (mixture of isomers) [Compound 137]
11 | 0.19 | 140 | – | CC(=O)N1CC2(C1)CN([C@H]1C[C@H]([C@H](C(C)C)N3CC4(CCN(c5ncnnc5Oc5ccc(F)cc5-c5ncc(C)cc5C5CC5)C4)C3)C1)C2 (single isomer, unassigned) [Compound 374]
12 | 0.057 | < 1.8 | – | Cc1ncc(-c2cc(F)ccc2Oc2nncnc2N2CCC3(C2)CN([C@@H](C(C)C)[C@H]2C[C@@H](N4CC5(CN(C(=O)C6(F)CC6)C5)C4)C2)C3)c(C2CC2)n1 [Compound 391]
13 | 0.5 | 3 | – | CC(C)[C@H]([C@H]1C[C@@H](NC2CS(=O)(=O)C2)C1)N1CC2(CCN(c3ncnnc3Oc3ccc(F)cc3-c3cncnc3C3CC3)C2)C1 (single isomer, unassigned) [Compound 235]
14 | 0.1 | 21 | – | CC(C)[C@@H]([C@H]1C[C@@H](NC2CC2)C1)N1CC2(CCN(c3ncnnc3Oc3ccc(F)cc3-c3nnccc3C3CC3)C2)C1 (single isomer, unassigned) [Compound 272]
15 | 0.7 | 37 | – | CO[C@H]1CCN([C@H]2C[C@H](C(C(C)C)N3CC4(CCN(c5ncnnc5Oc5ccc(F)cc5-c5nnccc5C5CC5)C4)C3)C2)C1 (single isomer, unassigned) [Compound 332]
16 | 0.54 | 79 | – | CC(C)[C@H]([C@H]1C[C@@H](Nc2cnc3nn[nH]c3c2)C1)N1CC2(CCN(c3ncnnc3Oc3ccc(F)cc3-c3cncnc3C3CC3)C2)C1 (single isomer, unassigned) [Compound 431]
17 | 0.1 | 9 | – | CC(C)[C@H]([C@H]1C[C@@H](N2CC3(CCOC3)C2)C1)N1CC2(CCN(c3ncnnc3Oc3ccc(F)cc3-c3cncnc3C3CC3)C2)C1 (single isomer, unassigned) [Compound 247]
18 | 0.1 | 27 | – | CC(C)[C@H]([C@H]1C[C@@H](NC2(C)CCS(=O)(=O)CC2)C1)N1CC2(CCN(c3ncnnc3Oc3ccc(F)cc3-c3cncnc3C3CC3)C2)C1 (single isomer, unassigned) [Compound 44]
19 | 0.046 | 2 | – | CC(=O)N[C@@H]1CCN([C@H]2C[C@@H]([C@H](C(C)C)N3CC4(CCN(c5ncnnc5Oc5ccc(F)cc5-c5cnc(C)nc5C5CC5)C4)C3)C2)C1 [Compound 389]
20 | 0.19 | 6 | – | Cc1nnc(-c2cnc(N[C@H]3C[C@@H]([C@@H](C(C)C)N4CC5(CCN(c6ncnnc6Oc6ccc(F)cc6-c6cncnc6C6CC6)C5)C4)C3)s2)o1 (single isomer, unassigned) [Compound 445]
